# Data: patent publication US20260083865A1, “PROSTATE SPECIFIC MEMBRANE ANTIGEN (PSMA) LIGANDS AND USE THEREOF” (priority 2022, published 2026)
# Where two headings read alike, the source gives them in different places. Numbered stars: 1 amine (or outer) side, 2 acyl side, 3 side chain; on linkers, the order of the positions; unused ones are H or OH. Bridge positions count the residues as written; N and C are the ends. Square brackets hold non-standard residues; d marks the D form. Side chains are listed from the residue outwards. Peptide text beside a SMILES is read from it. * marks the point of attachment. DOTA = O=C(O)CN1CCN(CC(=O)O)CCN(CC(=O)*)CCN(CC(=O)O)CC1; Trp(5-Br) = N[C@@H](Cc1c[nH]c2ccc(Br)cc12)C(=O)O; Phe(4-Cl) = N[C@@H](Cc1ccc(Cl)cc1)C(=O)O; Phe(4-Me) = Cc1ccc(C[C@H](N)C(=O)O)cc1; Arg(Me) = CNC(=N)NCCC[C@H](N)C(=O)O; Ethylenediamine = C(CN[*:2])N[*:1]; d(αMeD) = C[C@@](N)(CC(=O)O)C(=O)O; X1 = O=C(CC1CCN([*:1])CC1)[*:2]; Cit = NC(=O)NCCC[C@H](N)C(=O)O; Lys(Me) = CNCCCC[C@H](N)C(=O)O; Tle = CC(C)(C)[C@H](N)C(=O)O; 4Amb = NCc1ccc(C(=O)O)cc1; αMeS = C[C@](N)(CO)C(=O)O; Deg = CCC(N)(CC)C(=O)O; AEEA = NCCOCCOCC(=O)O; Aib = CC(C)(N)C(=O)O; X8 = O=C(CC1CCNCC1)*; Ahx = NCCCCCC(=O)O
# Columns and labels:
# [1] = molecular target: T1, Fc-fusion protein of human PSMA (hPSMA-Fc) (Homo sapiens, UniProt Q04609); test: Surface plasmon resonance assay (Biacore T200, single cycle kinetic); assay type: binding; details: hPSMA-Fc, 25° C., read-out: pKD CAT (converted)
# T1 construct: purchased Acro Biosystems PSA-H5264
# T1 sequence (Q04609 44-750 limits assumed): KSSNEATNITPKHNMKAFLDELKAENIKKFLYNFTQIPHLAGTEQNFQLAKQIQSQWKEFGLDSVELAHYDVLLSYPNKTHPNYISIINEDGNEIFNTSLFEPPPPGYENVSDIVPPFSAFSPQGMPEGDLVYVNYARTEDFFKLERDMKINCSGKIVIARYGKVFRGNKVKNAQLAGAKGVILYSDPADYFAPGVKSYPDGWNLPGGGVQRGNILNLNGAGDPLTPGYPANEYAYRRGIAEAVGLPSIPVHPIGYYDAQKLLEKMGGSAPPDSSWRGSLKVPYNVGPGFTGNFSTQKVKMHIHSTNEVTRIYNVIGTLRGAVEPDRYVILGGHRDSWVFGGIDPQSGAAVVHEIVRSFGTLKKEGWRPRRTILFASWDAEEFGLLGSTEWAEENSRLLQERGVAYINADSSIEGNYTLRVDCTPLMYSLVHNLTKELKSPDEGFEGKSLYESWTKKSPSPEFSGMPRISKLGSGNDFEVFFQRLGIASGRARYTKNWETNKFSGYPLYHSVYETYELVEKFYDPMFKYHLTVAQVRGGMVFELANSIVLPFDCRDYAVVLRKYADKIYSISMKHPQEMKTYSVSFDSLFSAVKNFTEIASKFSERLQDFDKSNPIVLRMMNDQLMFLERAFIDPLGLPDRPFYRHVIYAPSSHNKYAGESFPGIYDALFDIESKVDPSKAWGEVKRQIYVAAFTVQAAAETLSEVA
# In short: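 hPSMA-Fc was captured (~1000 RU) on an Fc-binding-peptide CM5 chip, and compounds were run in single cycle kinetic mode at 25° C in HBST with 0.1% DMSO. Double-blank-corrected sensorgrams were fitted to a 1:1 Langmuir model to give KD, reported as pKD.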
# [2] = molecular target: T2, PSMA-expressing C4-2 cells (Homo sapiens, UniProt Q04609); test: FACS binding assay (competition with 50 nM PSM-0183); details: read-out: pIC50 [C4-2] CAT (converted)
# T2 construct: PSMA-expressing C4-2 cells (ATCC, Cat. No. CRL-3314) were cultured in RPMI-1640; host or cells: C4-2 cells
# T2 sequence (Q04609 whole entry): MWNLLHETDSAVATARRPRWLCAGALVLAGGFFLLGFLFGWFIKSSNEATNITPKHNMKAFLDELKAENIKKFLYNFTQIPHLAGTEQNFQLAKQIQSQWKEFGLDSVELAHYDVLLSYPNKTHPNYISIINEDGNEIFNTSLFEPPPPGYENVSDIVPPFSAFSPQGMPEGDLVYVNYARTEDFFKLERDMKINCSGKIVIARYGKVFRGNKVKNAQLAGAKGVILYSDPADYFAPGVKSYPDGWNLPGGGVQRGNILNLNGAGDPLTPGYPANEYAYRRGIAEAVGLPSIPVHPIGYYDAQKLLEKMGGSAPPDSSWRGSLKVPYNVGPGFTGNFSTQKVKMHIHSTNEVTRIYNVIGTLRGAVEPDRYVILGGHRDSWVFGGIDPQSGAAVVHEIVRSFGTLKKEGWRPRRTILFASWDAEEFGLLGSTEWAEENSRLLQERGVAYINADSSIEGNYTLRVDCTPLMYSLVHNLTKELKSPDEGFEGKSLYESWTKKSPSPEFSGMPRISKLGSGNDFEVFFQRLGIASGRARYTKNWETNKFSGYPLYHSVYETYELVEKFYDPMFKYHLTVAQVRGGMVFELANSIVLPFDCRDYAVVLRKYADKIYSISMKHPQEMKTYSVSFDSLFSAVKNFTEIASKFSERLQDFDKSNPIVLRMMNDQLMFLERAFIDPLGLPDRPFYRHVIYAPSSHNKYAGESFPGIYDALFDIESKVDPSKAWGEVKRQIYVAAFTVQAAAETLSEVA
# In short: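 C4-2 cells were incubated 1 h at 4 °C with 50 nM AF488-labelled peptide PSM-0183 plus increasing test compound concentrations, then washed twice in ice-cold buffer. Median fluorescence in the AF488 channel was read by flow cytometry. IC50/pIC50 was derived by 4PL fitting of MFI versus concentration.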
# [3] = FACS binding, PSMA-expressing C4-2 cells, pIC50 category
# [4] = pKD category for PSMA SPR activity assay
# [5] = pIC50 category of FACS binding, C4-2 cells
Structure (SMILES),"Kd ([1]; PSMA SPR assay, pKD category)","IC50 [2, 3]","Kd [1, 4]","IC50 [2, 5]"
"CC(=O)N[C@H](C(=O)NC(C)(C)C(=O)N[C@@H](Cc1ccc(Cl)cc1)C(=O)N[C@H]1CSSC[C@@H](C(=O)N[C@H](C(N)=O)C(C)(C)C)NC(=O)[C@H](CC(N)=O)NC(=O)C(C)(C)NC(=O)[C@H](CCCNC(=N)N)NC(=O)[C@H](CCCCN)NC1=O)[C@@H](C)O [PSM-0367, Ac-Thr-Aib-Pcf-[Cys-Lys-Arg-Aib-Asn-Cys]-Tle-NH2] (Ac-T[Aib][Phe(4-Cl)]CKR[Aib]NC[Tle]-NH2; disulfide 4-9)",–,–,< 12.6 nM,< 200 nM
"C[C@@H](O)[C@H](NC(=O)[C@@H](NC(=O)[C@@H]1CSSC[C@H](NC(=O)[C@H](Cc2ccccc2)NC(=O)C(C)(C)NC(=O)[C@@H](NC(=O)CCCCCNC(=O)CN2CCN(CC(=O)O)CCN(CC(=O)O)CCN(CC(=O)O)CC2)[C@@H](C)O)C(=O)N[C@@H](CCCCN)C(=O)N[C@@H](CCCNC(=N)N)C(=O)NC(C)(C)C(=O)N[C@@H](CC(N)=O)C(=O)N1)C(C)(C)C)C(N)=O [PSM-0368, DOTA-Ahx-Thr-Aib-Phe-[Cys-Lys-Arg-Aib-Ass-Cys]-Tle-Thr-NH2] ({DOTA-Ahx}-T[Aib]FCKR[Aib]NC[Tle]T-NH2; disulfide 4-9)",–,–,< 12.6 nM,< 200 nM
"C[C@@H](O)[C@H](NC(=O)[C@@H](NC(=O)[C@@H]1CSSC[C@H](NC(=O)[C@H](Cc2ccc(Cl)cc2)NC(=O)[C@](C)(CO)NC(=O)[C@@H](NC(=O)CC2CCN(C(=O)CN3CCN(CC(=O)O)CCN(CC(=O)O)CCN(CC(=O)O)CC3)CC2)[C@@H](C)O)C(=O)N[C@@H](CCCCN)C(=O)N[C@@H](CCCNC(=N)N)C(=O)NC(C)(C)C(=O)N[C@@H](CC(N)=O)C(=O)N1)C(C)(C)C)C(N)=O [PSM-0369, DOTA-Cmp-Thr-Ams-Pcf-[Cys-Lys-Arg-Aib-Asn-Cys]-Tle-Thr-NH2] ({DOTA}-[X1]T[αMeS][Phe(4-Cl)]CKR[Aib]NC[Tle]T-NH2; disulfide 5-10)",–,–,< 12.6 nM,< 200 nM
"CC(=O)N[C@H](C(=O)NC(C)(C)C(=O)N[C@@H](Cc1ccc(C)cc1)C(=O)N[C@H]1CSSC[C@@H](C(=O)N[C@H](C(=O)N[C@H](C(N)=O)[C@@H](C)O)C(C)(C)C)NC(=O)[C@H](CC(N)=O)NC(=O)C(C)(C)NC(=O)[C@H](CCCNC(=N)N)NC(=O)[C@H](CCCCN)NC1=O)[C@@H](C)O [PSM-0372, Ac-Thr-Aib-Pmf-[Cys-Lys-Arg-Aib-Asn-Cys]-Tle-Thr-NH2] (Ac-T[Aib][Phe(4-Me)]CKR[Aib]NC[Tle]T-NH2; disulfide 4-9)",–,–,< 12.6 nM,< 200 nM
"C[C@@H](O)[C@H](NC(=O)CC1CCNCC1)C(=O)NC(C)(C)C(=O)N[C@@H](Cc1ccccc1)C(=O)N[C@H]1CSSC[C@@H](C(=O)N[C@H](C(=O)N[C@H](C(=O)N2CCC(CC(=O)N[C@H](CCCCNC(=O)CN3CCN(CC(=O)O)CCN(CC(=O)O)CCN(CC(=O)O)CC3)C(N)=O)CC2)[C@@H](C)O)C(C)(C)C)NC(=O)[C@H](CC(N)=O)NC(=O)C(C)(C)NC(=O)[C@H](CCCNC(=N)N)NC(=O)[C@H](CCCCN)NC1=O [PSM-0378, H-Cmp-Thr-Aib-Phe-[Cys-Lys-Arg-Aib-Asn-Cys]-Tle-Thr-Cmp-lys(DOTA)-NH2] (X8-T[Aib]FCKR[Aib]NC[Tle]T[X1][dK](DOTA)-NH2; disulfide 4-9)",–,–,< 12.6 nM,< 200 nM
"CC(=O)N1CCC(CC(=O)N[C@H](C(=O)NC(C)(C)C(=O)N[C@@H](Cc2ccc(Cl)cc2)C(=O)N[C@H]2CSSC[C@@H](C(=O)N[C@H](C(=O)NCCNC(=O)CN3CCN(CC(=O)O)CCN(CC(=O)O)CCN(CC(=O)O)CC3)C(C)(C)C)NC(=O)[C@H](CC(N)=O)NC(=O)C(C)(C)NC(=O)[C@H](CCCNC(=N)N)NC(=O)[C@H](CCCCN)NC2=O)[C@@H](C)O)CC1 [PSM-0379, Ac-Cmp-Thr-Aib-Pcf-[Cys-Lys-Arg-Aib-Asn-Cys]-Tle-en-DOTA] (Ac-[X1]T[Aib][Phe(4-Cl)]CKR[Aib]NC[Tle]-{Ethylenediamine-DOTA}; disulfide 5-10)",–,–,< 12.6 nM,< 200 nM

# Now from value to compound:
"Kd ([1]; PSMA SPR assay, pKD category)","IC50 [2, 3]","Kd [1, 4]","IC50 [2, 5]",Structure (SMILES)
> 501 nM,> 3160 nM,–,–,"C[C@@H](O)[C@H](NC(=O)[C@@H](NC(=O)[C@@H]1CSSC[C@H](NC(=O)[C@H](Cc2c[nH]c3ccc(Br)cc23)NC(=O)C(C)(C)NC(=O)[C@@H](NC(=O)CC2CCN(C(=O)CN3CCN(CC(=O)O)CCN(CC(=O)O)CCN(CC(=O)O)CC3)CC2)[C@@H](C)O)C(=O)N[C@@H](CCCCN)C(=O)N[C@@H](CCCNC(N)=O)C(=O)NC(C)(C)C(=O)N[C@@H](CC(N)=O)C(=O)N1)C(C)(C)C)C(N)=O [PSM-0359, DOTA-Cmp-Thr-Aib-5Brw-[Cys-Lys-Cit-Aib-Asn-Cys]-Tle-Thr-NH2] ({DOTA}-[X1]T[Aib][Trp(5-Br)]CK[Cit][Aib]NC[Tle]T-NH2; disulfide 5-10)"
< 12.6 nM,200 to 1260 nM,–,–,"CC(=O)N[C@H](C(=O)NC(C)(C)C(=O)N[C@@H](Cc1ccccc1)C(=O)N[C@H]1CSSC[C@@H](C(=O)N[C@H](C(=O)N[C@H](C(=O)N[C@@H](CC(=O)O)C(N)=O)[C@@H](C)O)C(C)(C)C)NC(=O)[C@H](CC(N)=O)NC(=O)[C@H](C)NC(=O)[C@H](CCC(=O)O)NC(=O)[C@H](CCCCN)NC1=O)[C@@H](C)O [PSM-0363, Ac-Thr-Aib-Phe-[Cys-Lys-Glu-Ala-Asn-Cys]-Tle-Thr-Asp-NH2] (Ac-T[Aib]FCKEANC[Tle]TD-NH2; disulfide 4-9)"
–,–,126 to 501 nM,200 to 1260 nM,"C[C@@H](O)[C@H](NC(=O)[C@@H](NC(=O)[C@@H]1CSSC[C@H](NC(=O)[C@H](Cc2ccc(Cl)cc2)NC(=O)[C@@](C)(CC(=O)O)NC(=O)[C@@H](NC(=O)CC2CCN(C(=O)CN3CCN(CC(=O)O)CCN(CC(=O)O)CCN(CC(=O)O)CC3)CC2)[C@@H](C)O)C(=O)N[C@@H](CCCCN)C(=O)N[C@@H](CCCNC(=N)N)C(=O)NC(C)(C)C(=O)N[C@@H](CC(N)=O)C(=O)N1)C(C)(C)C)C(N)=O [PSM-0366, DOTA-Cmp-Thr-amd-Pcf-[Cys-Lys-Arg-Aib-Asn-Cys]-Tle-Thr-NH2] ({DOTA}-[X1]T[d(αMeD)][Phe(4-Cl)]CKR[Aib]NC[Tle]T-NH2; disulfide 5-10)"
–,–,< 12.6 nM,< 200 nM,"CC(=O)N[C@H](C(=O)NC(C)(C)C(=O)N[C@@H](Cc1ccc(Cl)cc1)C(=O)N[C@H]1CSSC[C@@H](C(=O)N[C@H](C(=O)N[C@H](C(N)=O)[C@@H](C)O)C(C)(C)C)NC(=O)[C@H](CC(N)=O)NC(=O)[C@H](CCCCNC(=O)COCCOCCNC(=O)CN2CCN(CC(=O)O)CCN(CC(=O)O)CCN(CC(=O)O)CC2)NC(=O)[C@H](CCCNC(=N)N)NC(=O)[C@H](CCCCN)NC1=O)[C@@H](C)O [PSM-0370, Ac-Thr-Aib-Pcf-[Cys-Lys-Arg-Lys(DOTA-020c)-Asn-Cys]-Tle-Thr-NH2] (Ac-T[Aib][Phe(4-Cl)]CKRK([AEEA-DOTA])NC[Tle]T-NH2; disulfide 4-9)"
–,–,< 12.6 nM,< 200 nM,"CCC1(CC)NC(=O)[C@H](CCCNC(=N)N)NC(=O)[C@H](CCCCN)NC(=O)[C@@H](NC(=O)[C@H](Cc2ccccc2)NC(=O)C(C)(C)NC(=O)[C@@H](NC(C)=O)[C@@H](C)O)CSSC[C@@H](C(=O)N[C@H](C(=O)N[C@H](C(N)=O)[C@@H](C)O)C(C)(C)C)NC(=O)[C@H](CC(N)=O)NC1=O [PSM-0375, Ac-Thr-Aib-Phe-[Cys-Lys-Arg-Deg-Asn-Cys]-Tle-Thr-NH2] (Ac-T[Aib]FCKR[Deg]NC[Tle]T-NH2; disulfide 4-9)"
–,–,< 12.6 nM,< 200 nM,"CC(=O)N[C@H](C(=O)NC(C)(C)C(=O)N[C@@H](Cc1ccccc1)C(=O)N[C@H]1CSSC[C@@H](C(=O)N[C@H](C(=O)N[C@@H](Cc2c[nH]c3ccccc23)C(N)=O)C(C)(C)C)NC(=O)[C@H](CC(N)=O)NC(=O)C(C)(C)NC(=O)[C@H](CCCNC(=N)N)NC(=O)[C@H](CCCCN)NC1=O)[C@@H](C)O [PSM-0376, Ac-Thr-Aib-Phe-[Cys-Lys-Arg-Aib-Asn-Cys]-Tle-Trp-NH2] (Ac-T[Aib]FCKR[Aib]NC[Tle]W-NH2; disulfide 4-9)"
–,–,< 12.6 nM,< 200 nM,"CNCCCC[C@@H]1NC(=O)[C@@H](NC(=O)[C@H](Cc2ccc(Cl)cc2)NC(=O)C(C)(C)NC(=O)[C@@H](NC(=O)CC2CCN(C(=O)CN3CCN(CC(=O)O)CCN(CC(=O)O)CCN(CC(=O)O)CC3)CC2)[C@@H](C)O)CSSC[C@@H](C(=O)N[C@H](C(N)=O)C(C)(C)C)NC(=O)[C@H](CC(N)=O)NC(=O)C(C)(C)NC(=O)[C@H](CCCNC(=N)NC)NC1=O [PSM-0380, DOTA-Cmp-Thr-Aib-Pcf-[Cys-Lys(Me)-Arg(Me)-Aib-Asn-Cys]-Tle-NH2] ({DOTA}-[X1]T[Aib][Phe(4-Cl)]C[Lys(Me)][Arg(Me)][Aib]NC[Tle]-NH2; disulfide 5-10)"
–,–,< 12.6 nM,< 200 nM,"CC(C)(NC(=O)c1ccc(CNC(=O)CN2CCN(CC(=O)O)CCN(CC(=O)O)CCN(CC(=O)O)CC2)cc1)C(=O)N[C@@H](Cc1ccc(Cl)cc1)C(=O)N[C@H]1CSSC[C@@H](C(=O)N[C@H](C(N)=O)C(C)(C)C)NC(=O)[C@H](CC(N)=O)NC(=O)C(C)(C)NC(=O)[C@H](CCCNC(=N)N)NC(=O)[C@H](CCCCN)NC1=O [PSM-0381, DOTA-Pamb-Aib-Pcf-[Cys-Lys-Arg-Aib-Asn-Cys]-Tle-NH2] ({DOTA-4Amb}-[Aib][Phe(4-Cl)]CKR[Aib]NC[Tle]-NH2; disulfide 3-8)"
